From patent US12090252B2, “Method for producing retinal tissues” (RIKEN, priority 2017, dated 2024)

How the values were obtained:
Assay type in all cases: cell-based
[1] = system: cell aggregates containing a retinal tissue produced from human ES cells; assay: CRX:Venus, RXR-γ and NRL cell proportions in retinal tissue, about day 190 of suspension culture (immunostaining, Image J); conditions: for CRX-positive cells (CRX:Venus-positive, photoreceptor precursor) / NRL-positive cells among CRX-positive cells (rod photoreceptor precursor) / RXR-γ-positive and NRL-negative cell among CRX-positive cells (cone photoreceptor precursor): about day 190 (day 188-193), T3 60 nM day 38-130, BMP4 0.15 nM or Cyclopamine-KAAD 500 nM day 22-100
Experimental: (§1) A cell aggregate containing a retinal tissue in an initial developmental stage was prepared by the method described in “Kuwahara et al. Nat Commun 2015, 19(6), 6286-” after modification in part. That is, the aforementioned cultured ES cells were individually dispersed using TRYPLE™ Express cell dispersion solution (Invitrogen), and the individually dispersed human ES cells were suspended in 100 μL of a serum-free medium in a cell non-adhesive 96 well culture plate (SUMILON spheroid plate, SUMITOMO BAKELITE CO., LTD.) at 9×10^3 cells per well to allow rapid formation of aggregates, after which they were cultured at 37° C., 5% CO2. As the serum-free medium therefor, a serum-free medium obtained by adding 10% KSR, 450 μM 1-monothioglycerol, 1× Chemically defined lipid concentrate, 5 mg/mL BSA, 20 μM Y27632 to a 1:1 mixture of F-12 medium and IMDM medium was used. At 6 days after the start of suspension culture, BMP4 at a final concentration of 1.5 nM was added and suspension culture was continued. A half amount of the culture medium in the well was exchanged with the above-mentioned medium not supplemented with a BMP signal transduction pathway agonist every 3 or 4 days. A cell aggregate containing a retinal tissue at day 18 from the start of suspension culture was cultured in suspension in a serum-free medium (DMEM/F12 medium supplemented with 1% N2 supplement) containing 3 μM CHIR99021 and 5 μM SU5402 for 4 days, namely, up to day 22 from the start of suspension culture. Thereafter, suspension culture of the cell aggregate containing the retinal tissue was continued until it was appropriately used for analysis and the like. As the culture medium during this period, serum-containing media shown in the following to [3] were used and the cell aggregate was cultured under 5% CO2 conditions. • [1] day 22 to day 38 from the start of suspension culture; DMEM/F12 medium supplemented with 10% fetal calf serum, 1% N2 supplement, and 100 μM taurine (hereinafter to be referred to as medium A). • [2] day 38 to day 60 from the start of suspension culture; a 1:3 mixed medium of medium A, and Neurobasal medium supplemented with 10% fetal calf serum, 2% B27 supplement, […], and 100 μM taurine (hereinafter to be referred to as medium B). • [3] after day 60 or later from the start of suspension culture: medium B.
The cell aggregates containing a retinal tissue shown in Example 6 were prepared by respectively adding T3 or dorsalization signal transmitter (BMP4 or Cyclopamine-KAAD) as follows in the method described in Example 1. • [1]-T3 group (FIG. 6a, FIG. 6e, FIG. 6i, FIG. 6m); using the culture medium described in Example 1, culture was performed without addition up to day 191 from the start of suspension culture. • [2] +T3 group (FIG. 6b, FIG. 6f, FIG. 6j, FIG. 6n); using the culture medium described in Example 1, 60 nM T3 was further added from day 38 to day 130 from the start of suspension culture, and thereafter cultured up to day 192 from the start of suspension culture. From day 130 to day 192, medium described in Example 1 was used. • [3] +T3+BMP group (FIG. 6c, FIG. 6g, FIG. 6k, FIG. 6o); using the culture medium described in Example 1, 0.15 nM BMP4 was further added from day 22 to day 100 from the start of suspension culture, 60 nM T3 was added from day 38 to day 130 from the start of suspension culture, and thereafter cultured up to day 188 from the start of suspension culture. From day 130 to day 188, medium described in Example 1 was used. • [4] +T3+Cyclopamine-KAAD group (FIG. 6d, FIG. 6h, FIG. 6l, FIG. 6p); using the culture medium described in Example 1, 500 nM Cyclopamine-KAAD was further added from day 22 to day 100 from the start of suspension culture, 60 nM T3 was added from day 38 to day 130 from the start of suspension culture, and thereafter cultured up to day 193 from the start of suspension culture. From day 130 to day 193, medium described in Example 1 was used.

[2] = system: cell aggregates containing a retinal tissue produced from human ES cells; assay: CRX-positive and TRβ2-positive cells in retinal tissue, about day 70 of suspension culture (immunostaining, Image J); conditions: for CRX-positive and TRβ2-positive cells (cone photoreceptor precursor) / CRX-positive cells (photoreceptor precursor) contained in retinal tissue: about day 70 (day 71-75) from start of suspension culture, T3 60 nM from day 38, BMP4 0.15 nM or Cyclopamine-KAAD 500 nM from day 22
Experimental: as §1
The cell aggregates containing a retinal tissue shown in Example 4 were prepared by respectively adding T3 or dorsalization signal transmitter (BMP4) as follows in the method described in Example 1. • [1]-T3 group (FIG. 4a, FIG. 4e, FIG. 4i); using the culture medium described in Example 1, culture was performed without addition up to day 75 from the start of suspension culture. • [2] +T3 group (FIG. 4b, FIG. 4f, FIG. 4j); using the culture medium described in Example 1, 60 nM T3 was further added from day 38 from the start of suspension culture to the completion of suspension culture, and cultured up to day 71 from the start of suspension culture. • [3] +T3+BMP group (FIG. 4c, FIG. 4g, FIG. 4k); using the culture medium described in Example 1, 0.15 nM BMP4 and 60 nM T3 were further added respectively from day 22, day 38 from the start of suspension culture to the completion of suspension culture, and cultured up to day 71 from the start of suspension culture. • [4] +T3+Cyclopamine-KAAD group (FIG. 4d, FIG. 4h, FIG. 4l); using the culture medium described in Example 1, 500 nM Cyclopamine-KAAD and 60 nM T3 were further added respectively from day 22, day 38 from the start of suspension culture to the completion of suspension culture, and cultured up to day 71 from the start of suspension culture.
After fixing cell aggregates containing retinal tissue cultured under the above conditions with 4% para-formaldehyde, cryosections were prepared and subjected to immunostaining using CRX, TRβ2(TRb2) antibody, or DAPI staining for staining the cell nucleus.

[3] = system: cell aggregates containing a retinal tissue produced from human ES cells; assay: PAX6/CHX10 cell proportions in retinal tissue, about day 190 of suspension culture (immunostaining, Image J); conditions: for PAX6-negative/CHX10-strongly positive cells (bipolar cells) / PAX6-strongly positive/CHX10-negative cells (any of ganglion cell, amacrine cell, horizontal cell): about day 190 (day 188-191), T3 60 nM day 38-130, BMP4 0.15 nM or Cyclopamine-KAAD 500 nM day 22-100; for PAX6-strongly positive/CHX10-negative cell and PAX6-negative/CHX10-strongly positive cell, observation with fluorescent microscope: day 188-191, groups added with T3 compared to groups with no addition
Experimental: as §1
The cell aggregates containing a retinal tissue shown in Example 5 were prepared by respectively adding T3 or dorsalization signal transmitter as follows in the method described in Example 1. • [1]-T3 group (FIG. 5a, FIG. 5g, FIG. 5m); using the culture medium described in Example 1, culture was performed without addition up to day 191 from the start of suspension culture. • [2] +T3 group (FIG. 5b, FIG. 5h, FIG. 5n); using the culture medium described in Example 1, 60 nM T3 was further added from day 38 to day 130 from the start of suspension culture, and thereafter cultured up to day 188 from the start of suspension culture. From day 130 to day 188, medium B described in Example 1 was used. • [3] +BMP group (FIG. 5c, FIG. 5i, FIG. 5o); using the culture medium described in Example 1, 0.15 nM BMP4 was further added from day 22 to day 100 from the start of suspension culture, and thereafter cultured up to day 191 from the start of suspension culture. From day 100 to day 191, medium described in Example 1 was used. • [4] +T3+BMP group (FIG. 5d, FIG. 5j, FIG. 5p); using the culture medium described in Example 1, 0.15 nM BMP4 was further added from day 22 to day 100 from the start of suspension culture, 60 nM T3 was added from day 38 to day 130 from the start of suspension culture, and thereafter cultured up to day 188 from the start of suspension culture.

[4] = system: cell aggregates containing a retinal tissue produced from human ES cells; assay: CRX-positive cells in neural retinal tissue, day 100-105 of suspension culture (immunostaining, Image J)
Experimental: A cell aggregate containing a retinal tissue in an initial developmental stage was prepared by the method described in “Kuwahara et al. Nat Commun 2015, 19(6), 6286-” after modification in part. That is, the aforementioned cultured ES cells were individually dispersed using TRYPLE™ Express cell dispersion solution (Invitrogen), and the individually dispersed human ES cells were suspended in 100 μL of a serum-free medium in a cell non-adhesive 96 well culture plate (SUMILON spheroid plate, SUMITOMO BAKELITE CO., LTD.) at 9×10^3 cells per well to allow rapid formation of aggregates, after which they were cultured at 37° C., 5% CO2. As the serum-free medium therefor, a serum-free medium obtained by adding 10% KSR, 450 μM 1-monothioglycerol, 1× Chemically defined lipid concentrate, 5 mg/mL BSA, 20 μM Y27632 to a 1:1 mixture of F-12 medium and IMDM medium was used. At 6 days after the start of suspension culture, BMP4 at a final concentration of 1.5 nM was added and suspension culture was continued. A half amount of the culture medium in the well was exchanged with the above-mentioned medium not supplemented with a BMP signal transduction pathway agonist every 3 or 4 days. A cell aggregate containing a retinal tissue at day 18 from the start of suspension culture was cultured in suspension in a serum-free medium (DMEM/F12 medium supplemented with 1% N2 supplement) containing 3 μM CHIR99021 and 5 μM SU5402 for 4 days, namely, up to day 22 from the start of suspension culture. Thereafter, suspension culture of the cell aggregate containing the retinal tissue was continued until it was appropriately used for analysis and the like. […]

[5] = system: cell aggregates containing a retinal tissue produced from human ES cells; assay: CRX:Venus green fluorescence of cell aggregates under a fluorescent microscope, day 69-74; conditions: T3 vs −T3 group
Experimental: A cell aggregate containing a retinal tissue in an initial developmental stage was prepared by the method described in “Kuwahara et al. Nat Commun 2015, 19(6), 6286-” after modification in part. That is, the aforementioned cultured ES cells were individually dispersed using TRYPLE™ Express cell dispersion solution (Invitrogen), and the individually dispersed human ES cells were suspended in 100 μL of a serum-free medium in a cell non-adhesive 96 well culture plate (SUMILON spheroid plate, SUMITOMO BAKELITE CO., LTD.) at 9×10^3 cells per well to allow rapid formation of aggregates, after which they were cultured at 37° C., 5% CO2. As the serum-free medium therefor, a serum-free medium obtained by adding 10% KSR, 450 μM 1-monothioglycerol, 1× Chemically defined lipid concentrate, 5 mg/mL BSA, 20 μM Y27632 to a 1:1 mixture of F-12 medium and IMDM medium was used. At 6 days after the start of suspension culture, BMP4 at a final concentration of 1.5 nM was added and suspension culture was continued. A half amount of the culture medium in the well was exchanged with the above-mentioned medium not supplemented with a BMP signal transduction pathway agonist every 3 or 4 days. […]

[6] = day 188-193, compared to −T3 group
[7] = day 71-75, T3 vs −T3 group, combinations vs +T3 group

Row | Compound | CRX-positive cells (CRX:Venus-positive, photoreceptor precursor) [1] | NRL-positive cells among CRX-positive cells (rod photoreceptor precursor) [1] | RXR-γ-positive and NRL-negative cell among CRX-positive cells (cone photoreceptor precursor) [1] | CRX-positive and TRβ2-positive cells (cone photoreceptor precursor) [2] | CRX-positive cells (photoreceptor precursor) contained in retinal tissue [2] | PAX6-negative/CHX10-strongly positive cells (bipolar cells) [3] | PAX6-strongly positive/CHX10-negative cells (any of ganglion cell, amacrine cell, horizontal cell) [3] | PAX6-strongly positive/CHX10-negative cell and PAX6-negative/CHX10-strongly positive cell, observation with fluorescent microscope [3] | RXR-γ-positive and NRL-negative cone photoreceptor precursor among CRX:Venus-positive photoreceptor precursors, observation [1, 6] | proportion of photoreceptor precursor among the cells contained in the retinal tissue, observation [1, 6] | proportion of CRX-positive cells contained in the neural retinal tissue ([4]; T3 60 nM from day 38, BMP4 0.15 nM or Cyclopamine-KAAD 500 nM day 22-100) | CRX-positive cell (photoreceptor precursor), observation ([4]; compared to −T3 group) | ectopic photoreceptor precursors in neuroblastic layer and ganglion cell layer ([4]; observation) | green fluorescence shown by knocked-in CRX:Venus ([5]; day 69-74, T3 60 nM from day 38, BMP4 0.15 nM or Cyclopamine-KAAD 500 nM from day 22, combinations vs +T3 group) | green fluorescence shown by knocked-in CRX:Venus, in the presence of 9-cis retinoic acid ([5]; day 74, 100 nM 9-cis retinoic acid and 60 nM T3 from day 38, BMP4 0.45 nM from day 22, combination vs +T3 group) | CRX-positive cell (photoreceptor precursor), observation with fluorescence microscope [2, 7] | cone photoreceptor precursors (CRX-positive cell that expresses TRβ2), observation [2, 7] | ectopic CRX-positive cell in region on the basement membrane side from neuroblastic layer ([2]; day 71-75, observation with fluorescence microscope)
1 | BMP4: BMP protein, BMP signal transduction pathway agonist used as dorsalization signal transmitter | 37.7% | 6.1% | 31.3% | 10.8% | 17.0% | 15.49% | 24.60% | many | – | – | – | – | – | – | – | – | – | –
2 | CC1=C2C[C@H]3[C@@H](CC=C4CC(=O)CC[C@@]43C)[C@@H]2CC[C@]12O[C@@H]1C[C@H](C)CN(CCNC(=O)CCCCCNC(=O)CCc3ccccc3)[C@H]1[C@H]2C [Cyclopamine-KAAD] | 41.7% | 11.5% | 30.2% | 8.1% | 14.1% | 8.65% | 24.50% | many | – | – | – | – | – | – | – | – | – | –
3 | N[C@@H](Cc1cc(I)c(Oc2ccc(O)c(I)c2)c(I)c1)C(=O)O [T3, triiodothyronine] | 53.4% | 9.4% | 44.1% | 11.3% | 22.8% | 4.29% | 13.83% | markedly decreased | increased | markedly high | 30.0% | remarkably increased | ectopic photoreceptor precursors are contained | observed more | observed more | found more | found in a greater number | found at the same level as in the apical surface
